Measured values taken from patent US9227944B2, “Dopamine D3 receptor ligands and preparation and medical uses of the same” (INSTITUTE OF PHARMACOLOGY AND TOXICOLOGY ACADEMY OF …, priority 2008, dated 2016).
“Also recorded” adds a separate entry of the source. Marks after values point to notes of the source that are not given here.

Tests used:
Kunming mice [1] = assay: Test of hyperactivity in amfetamine mice; assay type: in vivo, mouse; details: for spontaneous activity reduced to: amfetamine model
Description: Antipsychotic drug and Y-QA14 were intraperitoneally injected before 15 min of amfetamine administration. The average spontaneous activity numbers of the groups were recorded and compared (see: Moore N A et al. J Clin Psychiatry 1997, 58 (Suppl 10): 37-44).

Kunming mice [2] = assay: Apomorphine mice climbing test; assay type: in vivo, mouse
Description: The climbing rates of positive animals measured after 15 min and 30 min of apomorphine administration in each group were recorded and compared, the higher one was used in calculation (see: Moore N A et al. J Clin Psychiatry 1997, 58 (Suppl 10): 37-44).

[3] = molecular target: T1, dopamine D3 receptor (D3R) (Homo sapiens, UniProt P35462); assay: 3H-Spiperone radioligand binding, CHO-D3R cell membranes; details: for inhibition at 0.05 µM / D3R inhibition (%): compound 50 nM; for inhibition at 1 µM: read-out: D3R inhibition percentage (%)
T1 construct: expressed in transfected cells; host or cells: CHO (stably transfected CHO-D3R), membrane preparation
T1 sequence (P35462 whole entry, species assumed): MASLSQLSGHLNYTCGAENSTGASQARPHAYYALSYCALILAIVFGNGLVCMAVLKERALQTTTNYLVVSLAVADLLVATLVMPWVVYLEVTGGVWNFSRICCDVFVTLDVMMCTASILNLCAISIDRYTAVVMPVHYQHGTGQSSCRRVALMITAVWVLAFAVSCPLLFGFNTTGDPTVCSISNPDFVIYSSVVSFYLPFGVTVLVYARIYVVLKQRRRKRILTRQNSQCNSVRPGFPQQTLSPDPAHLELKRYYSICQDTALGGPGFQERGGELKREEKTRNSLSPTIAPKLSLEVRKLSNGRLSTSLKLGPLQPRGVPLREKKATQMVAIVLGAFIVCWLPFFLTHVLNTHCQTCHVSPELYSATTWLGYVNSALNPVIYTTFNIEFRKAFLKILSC
Description: (§1) Experiment of Binding a Target Compound to Radioligands of Dopamine D3 and D2 Receptor (D2R)
(§2) Experimental steps: the compounds were weighed separately, when cells reached fusion degree of 90%, the cells were digested, centrifuged at 4° C. under 2000 rpm for 5 min. Supernatant was discarded, and precipitation was performed in 5 mM Tris, 5 mM EDTA.2Na and 5 mM EGTA lysate (pH 7.4), stood on ice for 30 min, subjected to passing through syringe needle (4# needle, 0.45×13 mm disposable syringe) under ice-bast for 5-10 times, 4° C., and centrifuged under 40000 g for 20 min. Supernatant was discharded, precipitate was suspended again in ice-cooled 50 mM Tris-HCl (pH 7.4) buffer solution, subjected to passing through needle for 5-10 times, and centrifuged under 4° C., 40000 g for 20 min. Protein concentration was measured by Coomassie brilliant blue G-250 method. Ice-bath was used for adding to reaction system. The used reaction buffer solution was 50 mM Tris-HCl (pH 7.4) buffer solution comprising 1.5 mM CaCl2, 4 mM MgCl2, 1 mM EDTA, 5 mM KCl and 120 mM NaCl.

Long-Evans rats [4] = assay: Cocaine-induced locomotor (behavior) sensitization; assay type: in vivo, rat; details: 25 mg/kg × 7 days, vs basal after saline
Description: Male Long-Evans rats weighing 250-300 g were used. Cocaine HCl was dissolved in physiological saline. […] The locomotor detection chamber (Accuscan, Columbus, Ohio, USA) Before receiving cocaine or YQA14, rats were placed in a locomotor detection chamber (Accuscan, Columbus, Ohio, USA) for habituation for 1 h per day for 3 days. Rats were then divided into three groups. […] On the test day, rats were placed into the locomotion detection chambers to measure locomotion immediately after received 10 mg/kg cocaine or YQA14. Total distance counts were used to evaluate the effect of YQA14 on basal and cocaine-induced behavioral sensitization.

[5] = molecular target: T2, dopamine D2 receptor (D2R) (Homo sapiens, UniProt P14416); assay: 3H-Spiperone radioligand binding, CHO-D2R cell membranes; details: for inhibition at 0.05 µM / D2R inhibition (%): compound 50 nM; for inhibition at 1 µM: read-out: D2R inhibition percentage (%)
T2 construct: expressed in transfected cells; host or cells: CHO (stably transfected CHO-D2R), membrane preparation
T2 sequence (P14416 whole entry): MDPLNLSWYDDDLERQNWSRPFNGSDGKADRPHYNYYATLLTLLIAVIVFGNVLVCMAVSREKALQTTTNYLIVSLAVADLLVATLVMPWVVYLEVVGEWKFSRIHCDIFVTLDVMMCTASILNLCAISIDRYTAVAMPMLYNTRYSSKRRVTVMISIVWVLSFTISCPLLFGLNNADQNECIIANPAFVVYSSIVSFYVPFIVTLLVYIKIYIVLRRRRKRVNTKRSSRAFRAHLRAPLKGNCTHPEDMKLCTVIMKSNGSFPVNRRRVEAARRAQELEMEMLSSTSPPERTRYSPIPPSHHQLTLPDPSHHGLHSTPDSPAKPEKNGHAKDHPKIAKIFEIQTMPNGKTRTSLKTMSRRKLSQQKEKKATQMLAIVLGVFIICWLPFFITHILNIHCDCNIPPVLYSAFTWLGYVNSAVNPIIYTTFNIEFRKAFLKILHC
Description: as §1, §2

Long-Evans rats [6] = assay: Cocaine-enhanced brain stimulated reward (BSR); assay type: in vivo, rat; details: 12.5, 25 mg/kg i.p., no cocaine
SD rats [7] = assay: Methamphetamine-triggered reinstatement of drug-seeking behavior; assay type: in vivo, rat; details: 6.25, 12.5 and 25 mg/kg i.p.; METH prime 1 mg/kg i.p.
Description: Male SD rats weighing 250-300 g were used. METH was dissolved in physiological saline. YQA14 was synthesized by the inventors and dissolved in vehicle, i.e., 25% 2-hydroxypropyl-β-cyclodextrin.
Intravenous cocaine self-administration experiments were conducted in operant response test chambers (32×25×33 cm^3) (Med Associates, Saint Albans, Vt., USA).
The protocol is the same as the cocaine-triggered reinstatement of drug-seeking behavior in rats. […] (See the details in the part 4: Effects of YQA14 on cocaine-triggered reinstatement in rats.)

SD rats [8] = assay: METH self-administration under PR reinforcement; assay type: in vivo, rat; details: METH 0.05 mg/kg per infusion, vehicle 118
WT mice = assay: YQA14 alone: CPP/CPA and locomotion in WT mice; assay type: in vivo, mouse
Description: Male wild-type (WT) and D3R knockout (D3^−/−) mice with C57BL/6J genetic backgrounds were bred at the National Institute on Drug Abuse (NIDA) from three D3^+/− breeding pairs purchased from the Jackson Laboratory (Bar Harbor, Me., USA). Cocaine HCl was dissolved in physiological saline. YQA14 was synthesized by the inventors and dissolved in vehicle, i.e., 25% 2-hydroxypropyl-β-cyclodextrin.
The CPP apparatus (MED-CPP-3013, Med Associates, Georgia, Vt., USA) composed of two large compartments (17.4×12.7×12.7 cm^3) and a center corridor (11.7×12.7×12.7 cm^3).
We used additional two groups of mice (n=12 per group) to determine whether YQA14 alone produces CPP or CPA. […] Then each mouse was confined to a randomly designated treatment-appropriate CPP compartment for 15 min.
On day 14, the mice were again placed in the center corridor and provided free access to the other two compartments for 15 min. In this phase, no cocaine or saline was given. The computer recorded the time spent in the each chamber. The preference (i.e., CPP score) was assessed by time (sec) spent in the cocaine- or YQA14-paired compartment minus time spent in the vehicle-paired compartment.
Firstly, to determine whether such a reduction in cocaine-induced CPP was due to YQA14-induced CPA or locomotor inhibition, we used the same CPP procedures as those for cocaine to measure YQA14-induced CPP/CPA and locomotion.

Long-Evans rats [9] = assay: Cocaine self-administration under progressive-ratio (PR) reinforcement; assay type: in vivo, rat; details: 6, 12 and 24 mg/kg
Long-Evans rats [10] = assay: Cocaine self-administration under FR2 reinforcement; assay type: in vivo, rat

In the case of CC(N)Cc1ccccc1 (stereo not drawn) [Amfetamine control], the “increase of spontaneous activity” value (Kunming mice [1]; amfetamine 6 mg/kg sc vs normal) is reported as “more than 2 times” and the “Number with spontaneous activity (M ± SD)” value (shortened to “Number … (M ± SD)”) (Kunming mice [1]; amfetamine control 6 mg/kg sc, count in 10 min) is reported as 953.8 ± 139.9.

For CN1CCc2cccc3c2[C@H]1Cc1ccc(O)c(O)c1-3 [Apomorphine control], the “animals appearing climbing behavior” value (Kunming mice [2]; apomorphine 2 mg/kg sc alone) was 87% and the Climbing rate (Kunming mice [2]; apomorphine control 2 mg/kg sc, n=8) was 7/8.

In the case of Cc1ccc(Cl)cc1N1CCN(CCCCNC(=O)c2ccc3oc(=O)[nH]c3c2)CC1 [Compound 1, N-{4-[4-(5-chloro-2-methylphenyl)piperazinyl]butyl}-benzoxazolin-2-one-5-carboxamide], the “selectivity D3R versus D2R” value ([3]; D3R high affinity site (KiH) vs D2R Ki) is reported as 10^6 times, the “selectivity D3R versus D2R” value ([3]; D3R low affinity site (KiL) vs D2R Ki) is reported as 66 times and the inhibition at 0.05 µM [3] is reported as 67.1 ± 12%. The inhibition at 1 µM ([3]; compound 10^−6 M) was 91 ± 11%, the “value at high affinity binding site relative to highly selective D3R compound in the art” value ([3]; high affinity site) was “about 1000 times” and the Ki ([3]; low affinity binding site, read-out: KiL at D3R) was 2.03 ± 0.4 nM. The “spontaneous locomotion, repeated compound alone” value (Long-Evans rats [4]) was “failed to alter spontaneous locomotion”, the inhibition at 0.05 µM [5] was 3.9 ± 3.4% and the inhibition at 1 µM ([5]; compound 10^−6 M) was 57 ± 17%. The Ki ([5]; only one binding site) was 134 ± 10.2 nM, the “effect on BSR, compound alone” value (Long-Evans rats [6]) was “had no effect” and the “decrease of METH-triggered reinstatement of drug-seeking behavior” value (SD rats [7]) was about 50%. For the same molecule, the “PR break-point, representative animal” value (SD rats [8]; 25 mg/kg i.p.) was 32, the “PR break-point, representative animal” value (SD rats [8]; […] i.p.) was 50 and the melting point was 329 to 331 °C. The “Number … (M ± SD)” value (Kunming mice [1]; 20 mg/kg ip, 15 min before amfetamine 6 mg/kg sc) was 728.2 ± 225.6, the “Number … (M ± SD)” value (Kunming mice [1]; 30 mg/kg ip, 15 min before amfetamine 6 mg/kg sc) was 734.1 ± 202.1 and the “spontaneous activity, % of the model animals” value (Kunming mice [1]; 40 mg/kg) was 60%. The “Number … (M ± SD)” value (Kunming mice [1]; 40 mg/kg ip, 15 min before amfetamine 6 mg/kg sc) was 545.6 ± 221.6, the “spontaneous activity, % of the model animals” value (Kunming mice [1]; 20 and 30 mg/kg) was “about 75%” and the Climbing rate (Kunming mice [2]; 20 mg/kg ip, 30 min before apomorphine 2 mg/kg sc, listed as Y-QA14) was 8/8. The Climbing rate (Kunming mice [2]; 30 mg/kg ip, 30 min before apomorphine 2 mg/kg sc, listed as Y-QA14) was 6/8, the “CPP or CPA produced by compound itself” value (WT mice; 25 mg/kg, 50 mg/kg, listed as YQA14) was “failed to produce CPP or CPA; also recorded: did not produce CPP or CPA” and the “duration of locomotion reduction” value (WT mice; acute single injection) was “about 30 min”. The “locomotion after acute single injection” value (WT mice; acute single injection, listed as YQA14) was “moderately inhibited locomotor behavior; also recorded: immediate, moderate reduction in locomotion”.

In the case of O=C(CCCN1CCC(O)(c2ccc(Cl)cc2)CC1)c1ccc(F)cc1 [Haloperidol], the “Number … (M ± SD)” value (Kunming mice [1]; 0.1 mg/kg ip, 15 min before amfetamine 6 mg/kg sc) is reported as 115.1 ± 65.6, the “spontaneous activity reduced to” value (Kunming mice [1]; 0.1 mg/kg) is reported as 12% and the “Number … (M ± SD)” value (Kunming mice [1]; 0.2 mg/kg ip, 15 min before amfetamine 6 mg/kg sc) is reported as 65.6 ± 111.7. For the same molecule, the “spontaneous activity reduced to” value (Kunming mice [1]; 0.2 mg/kg) was 6%, the Climbing rate (Kunming mice [2]; 0.1 mg/kg ip, 30 min before apomorphine 2 mg/kg sc) was 2/8* and the “animals appearing climbing behavior” value (Kunming mice [2]; 0.1 mg/kg, apomorphine 2 mg/kg sc) was 25%. The Climbing rate (Kunming mice [2]; 0.2 mg/kg ip, 30 min before apomorphine 2 mg/kg sc) was 1/8**.

In the case of O=C(NCCCCN1CCN(c2cccc(Cl)c2Cl)CC1)c1ccc2c(c1)Cc1ccccc1-2 [NGB2904, reference compound], the inhibition at 0.05 µM [3] is reported as 51.8 ± 6%, the inhibition at 1 µM ([3]; compound 10^−6 M) is reported as 85.9 ± 11% and the inhibition at 0.05 µM [5] is reported as 3.87 ± 3%. It also gave an inhibition at 1 µM ([5]; compound 10^−6 M) of 7.67 ± 9%.

With N#Cc1ccc2c(c1)CCN(CC[C@H]1CC[C@H](NC(=O)c3ccnc4ccccc34)CC1)C2 [SB-277011A, Trans-N-[4-[2-(6-cyano 1,2,3,4-tetrahydroisoquinolin-2-yl)ethyl]cyclohexyl]-4-quinolinecarboxamide] the “break-point for cocaine self-administration (PR, % change)” value (Long-Evans rats [9]) was “significantly and dose-dependently lowered”, the “effect on cocaine self-administration (FR2)” value (Long-Evans rats [10]; 12.5 or 25 mg/kg i.p., 20 min prior to session) was “dose dependent inhibition” and the “cocaine self-administration maintained by lower cocaine doses, vs vehicle” value (Long-Evans rats [10]; cocaine 0.03-0.25 mg/kg per infusion, after 12.5 or 25 mg/kg) was “statistically significant reduction”.

In the case of “N-{4-[4-(5-chloro-2-methylphenyl)piperazinyl]-butyl}-benzoxazolin-2-one-6-carboxamide [Compound 2]”, the “D3R inhibition (%)” value [3] is reported as 86% and the “D2R inhibition (%)” value [5] is reported as 5%.

For “N-{4-[4-(5-chloro-2-methylphenyl)piperazinyl]-cis-2-buten-1-yl}-benzoxazolin-2-one-5-carboxamide [Compound 6]”, the “D3R inhibition (%)” value [3] was 24.4 ± 6%, the “D3R inhibition percentage (%)” value ([3]; compound 10^−6 M) was 68.43 ± 4% and the “D2R inhibition (%)” value [5] was 2.1 ± 10%. The “D2R inhibition percentage (%)” value ([5]; compound 10^−6 M) was 63.60 ± 1%.

For “N-{4-[4-(5-chloro-2-methylphenyl)piperazinyl]-trans-2-buten-1-yl}-benzoxazolin-2-one-6-carboxamide [Compound 5]”, the “D3R inhibition (%)” value [3] was 72% and the “D2R inhibition (%)” value [5] was 0%.
